pEC50, pIC50: −log10 of the molar value.
Columns and labels:
[1] = Cytotoxicity against human THP-1 cells assessed as reduction in cell growth incubated for 3 days by resazurin dye based analysis; format: toxicity; conditions: time 3 day
[2] = Cytotoxicity against HEK293 cells assessed as reduction in cell growth incubated for 3 days by resazurin dye based analysis; format: toxicity; conditions: human, time 3 day
Leishmania major [3] = test: Antileishmanial activity against Leishmania major IR-173 promastigotes assessed as inhibition of parasite growth measured for 48 hrs by resazurin staining based analysis; format: functional, organism-based; conditions: IR-173, 48 h
[4] = Cytotoxicity against primary peritoneal mouse macrophages cells assessed as reduction in cell growth measured after 24 hrs by colorimetric assay; format: toxicity, cell-based, Macrophage
Trypanosoma brucei = test: Antitrypanosomal activity against Trypanosoma brucei assessed as parasite growth inhibition; format: functional, organism-based
Leishmania infantum [5] = test: Antileishmanial activity against Leishmania infantum MHOM/BR/1972/BH46 amastigotes assessed as reduction in cell viability measured for 48 hrs by PI staining based flow cytometry analysis; format: functional, organism-based; conditions: MHOM/BR/1972/BH46, 48 h
Leishmania infantum [6] = test: Antileishmanial activity against Leishmania infantum MHOM/BR/1972/BH46 promastigotes assessed as reduction in parasite viability measured for 48 hrs by PI staining based flow cytometry analysis; format: functional, organism-based; conditions: MHOM/BR/1972/BH46, 48 h
Leishmania amazonensis [7] = test: Antileishmanial activity against Leishmania amazonensis MHOM/BR/71973/M2269 promastigotes assessed as reduction in parasite viability measured for 48 hrs PI staining based flow cytometry analysis; format: functional, organism-based; conditions: MHOM/BR/71973, 48 h
Leishmania donovani [8] = test: Antileishmanial activity against Leishmania donovani MHOM/ET/67/HU3 intracellular amastigotes infected in human THP-1 cells assessed as inhibition of parasite growth incubated for 72 hrs by resazurin based colorimetric assay; format: functional, organism-based; conditions: MHOM/ET/67/HU3, THP-1, 72 h
Leishmania donovani [9] = test: Antileishmanial activity against Leishmania donovani infected in BALB/c mouse model assessed as reduction in parasite growth at 75 mg/kg, po administered for 5 consecutive days; format: functional; set-up: scale not given: the % may be the effect or the level left
Leishmania infantum [10] = test: Antileishmanial activity against Leishmania infantum amastigotes infected in human THP-1 cells assessed as reduction in parasite growth incubated for 72 hrs by high content imaging analysis; format: functional, organism-based; conditions: THP-1, 72 h
Leishmania infantum [11] = test: Antileishmanial activity against Leishmania infantum MCAN/ES/ 89/IPZ229/1/89 axenic amastigotes assessed as reduction in parasite viability treated for 48 hrs by PI staining based flow cytometry; format: functional, organism-based; conditions: MCAN/ES/89/IPZ229/1/89, 48 h
Leishmania tropica = test: Antileishmanial activity against Leishmania tropica promastigotes incubated for 24 hrs measured by alamar blue staining based fluorescence analysis; format: functional, organism-based
Leishmania infantum [12] = test: Antileishmanial activity against Leishmania infantum MCAN/ES/89/IPZ229/1/89 axenic amastigotes assessed as reduction in parasite growth treated for 24 hrs by PI staining based flow cytometry; format: functional, organism-based; conditions: MCAN/ES/89/IPZ229/1/89, 24 h
[13] = Selectivity index, ratio of CC50 for human HepG2 cells to EC50 for GFP-expressing Leishmania infantum intracellular amastigotes infected in human THP-1 derived macrophage cells; format: toxicity, cell-based; conditions: read-out: Ratio CC50/EC50
Leishmania infantum [14] = test: Antileishmanial activity against Leishmania infantum MHOM/BR/70/BH46 promastigotes assessed as reduction in parasite growth incubated for 72 hrs by resazurin staining based analysis; format: functional, organism-based; conditions: MHOM/BR/70/BH46, 72 h
Leishmania donovani [15] = test: Antileishmanial activity against Leishmania donovani promastigotes assessed as inhibition of cell growth measured after 3 days by resazurin/alamar blue-staining based analysis; format: functional, organism-based; conditions: 72 h
Leishmania infantum [16] = test: Antiparasitic activity against Leishmania infantum amastigotes infected in human THP-1 cells assessed as reduction in parasitemia incubated for 72 hrs by high content imaging analysis; format: functional, organism-based; conditions: THP-1, 72 h
Leishmania major [17] = test: Antileishmanial activity against Leishmania major promastigotes assessed as reduction in parasite growth incubated for 48 hrs by MTT assay; format: functional, organism-based
Leishmania amazonensis [18] = test: Antileishmanial activity against Leishmania amazonensis WHOM/00LTB001 promastigotes assessed as reduction in parasite growth incubated for 72 hrs by resazurin staining based analysis; format: functional, organism-based; conditions: WHOM/00LTB001, 72 h
[19] = Cytotoxicity against mouse J774.A1 cells assessed as inhibition of cell growth measured for 72 hrs by MTT assay; format: toxicity, cell-based
Leishmania donovani [20] = test: Antileishmanial activity against Leishmania donovani promastigotes infected in golden hamster assessed as reduction in parasite load in liver at 20 mg/kg administered twice per week for 4 weeks relative to control; format: functional; set-up: scale not given: the % may be the effect or the level left
Leishmania braziliensis = test: Antileishmanial activity against Leishmania braziliensis MHOM/BR/75/M2904 promastigotes assessed as reduction in cell viability incubated for 48 hrs by resazurin staining based assay; format: functional, organism-based; conditions: MHOM/BR/75/M2904, 48 h
Leishmania infantum [21] = test: Antileishmanial activity against Leishmania infantum axenic amastigotes (MCAN/ES/89/IPZ229/1/89) assessed as inhibition of parasite proliferation measured after 24 hrs by resazurin dye based fluorescence analysis; format: functional, organism-based; conditions: MCAN/ES/89/IPZ229/1/89, 24 h
Leishmania donovani [22] = test: Antileishmanial activity against Leishmania donovani promastigotes infected in golden hamster assessed as reduction in parasite load in spleen at 20 mg/kg administered twice per week for 4 weeks relative to control; format: functional; set-up: scale not given: the % may be the effect or the level left
Leishmania amazonensis [23] = test: Antileishmanial activity against Leishmania amazonensis promastigotes assessed as reduction in parasite viability incubated for 48 hrs by MTT assay; format: functional, organism-based
HepG2 [24] = test: Antiproliferative activity against human HepG2 cells assessed as reduction in cell viability incubated for 72 hrs by MTT assay; format: functional, cell-based; conditions: HepG2, 72 h
HepG2 [25] = test: Cytotoxicity against human HepG2 cells assessed as reduction in cell growth incubated for 48 hrs by MTT assay; format: functional, cell-based; conditions: HepG2, 48 h
Leishmania infantum [26] = test: Antileishmanial activity against Leishmania infantum MCAN/ES/89/IPZ229/1/89 promastigotes assessed as reduction in parasite growth measured for 48 hrs by resazurin dye based analysis; format: functional, organism-based; conditions: MCAN/ES/89/IPZ229/1/89, 48 h

## COc1cc(/C=C2/Oc3cc(O)ccc3C2=O)cc(OC)c1
[1]
  CC50 at 72 h: 96.9 µM
[2]
  CC50 at 72 h: > 200 µM

## CCCCCCCCCCn1cc(CNCCNc2ccnc3cc(Cl)ccc23)nn1
Leishmania major [3]
  pIC50: 7.10
[4]
  CC50 at 24 h: 18.2 µM

## CCCc1cn(CCN2CCN(C(=O)c3c(C)nc4ccc(C)cn34)CC2)nn1
Trypanosoma brucei
  pIC50: 6.14

## C=CCc1cc(OC)c2oc(=O)c(C(=O)c3ccccc3)cc2c1
Leishmania infantum [5]
  pIC50: 4.74
Leishmania infantum [6]
  pIC50: 4.57
Leishmania amazonensis [7]
  pIC50: 4.09

## CC(C)Oc1cc(OCCCCCCCCn2ccnc2)ccc1NC(=N)c1ccccn1
Leishmania donovani [8]
  pIC50: 6.28
Leishmania donovani [9]
  Activity: 33%

## C/C(=N\Nc1nc(-c2ccc(Br)cc2)cs1)c1ccccn1
Leishmania infantum [10]
  pIC50: 6.37

## CC1(C)Oc2c(c(=O)[nH]c3ccccc23)[C@H]2[C@@H](Cl)[C@](C)(O)CC[C@@H]21
Leishmania infantum [11]
  pIC50: 5.09

## Nc1ccnn1C(=O)C1CCC2(CC1)OOC1(O2)C2CC3CC(C2)CC1C3 (centres undefined)
Leishmania tropica
  pIC50: 3.66
Leishmania infantum [12]
  pIC50: 3.66
[13]
  selectivity ratio: < 5

## Cc1cc(Br)cc2c(/C=N/NC(=S)Nc3ccccc3)c[nH]c12
Leishmania infantum [14]
  pIC50: 5.25

## O=c1c2ccccc2nc(/C=C/c2ccc([N+](=O)[O-])cc2)n1-c1ccccc1
Leishmania donovani [15]
  pIC50: 7.70

## Cn1c(=O)c2c(c3ccccc31)OC(C)(C)[C@H]1CC[C@@](C)(O)[C@H](Cl)[C@H]21
Leishmania infantum [16]
  pIC50: < 5.20

## COc1ccc(C(=O)NC(=S)Nc2nc(-c3ccccc3)c(C)s2)cc1
Leishmania major [17]
  pIC50: 4.07

## CCc1ccc(NC(=S)N/N=C/c2c[nH]c3c(C)cc(Br)cc23)cc1
Leishmania amazonensis [18]
  pIC50: 4.91
[19]
  CC50 at 72 h: 53.2 µM

## CCCCCCCCCn1cc(COC(C)=O)[n+](C)n1
Leishmania donovani [20]
  Activity: 26.88%
Leishmania braziliensis
  pIC50: 5.34
Leishmania infantum [21]
  pIC50: 5.27
Leishmania donovani [22]
  Activity: 59.8%

## O=C(CCc1ccc(O)c(O)c1)O[C@H](Cc1ccc(O)cc1)C(=O)O
Leishmania amazonensis [23]
  pIC50: 4.72

## Nc1nc2ccccc2c2ccccc12
HepG2 [24]
  pEC50: > 4.52
HepG2 [25]
  pEC50: 5.51
Leishmania infantum [26]
  pEC50: 4.90

Reference: ChEMBL document CHEMBL5528001, “Synthetic product-based approach toward potential antileishmanial drug development” (Eur J Med Chem, 2024)
